Test results as given in patent US8759309B2, “Polynucleotides that stimulate neutrophils” (Immunom Technologies, Inc., priority 2010, dated 2014).
Values joined by “and” are separate entries in the source; they are usually repeats but may differ in a detail not shown here. Equal entries are not always repeated. “Also recorded” adds a separate entry of the source.

System: neutrophils isolated from the kidneys of fathead minnows
Test: Neutrophil oxidative (respiratory) burst, oxidation of DHR123 to rhodamine by flow cytometry
Assay type: cell-based, Pimephales promelas
Details: for % of PMA (oxidative burst): PMA at 1 μg/ml = 100%, * P<0.05; for stimulation of neutrophils (qualitative): exposure of neutrophils to individual oligos and their dimer
From the text: Polynucleotides that stimulate neutrophils may be identified by exposing neutrophils isolated from the kidneys of fathead minnows to one or more polynucleotides complementary to an Initiation Site of Origin of Replication. The oxidation of the non-fluorescent dihydrorhodamine 123 (DHR123) to fluorescent rhodamine (Rh 123) may be determined indirectly by determining fluorescence intensity using spectrofluorometry in a flow cytometer. Rh 123 has an absorption maximum at 507 nm and a fluorescence maximum at 529 nm. Results of fluorescence intensity for the polynucleotide of the present invention and a control may be obtained and compared. The control serves as a reference point for measuring changes in phenotype such as fluorescence intensity. A control may include a neutrophil contacted with a known neutrophil stimulator, such as phorbol myristic acetate (PMA), and/or a neutrophil not exposed to the neutrophil stimulator or the polynucleotide of the present invention. The degree or amount of fluorescent intensity of each sample may be determined at a desired time point and the values of various samples compared. For example, a similar or an increase in the fluorescence intensity level of a sample from a neutrophil exposed to a polynucleotide of the present invention relative to the fluorescence intensity level of a sample from a neutrophil exposed to a known neutrophil stimulator would be indicative of the polynucleotide being able to stimulate neutrophils. For example, an increase in the fluorescence intensity level of a sample from a neutrophil exposed to a polynucleotide of the present invention relative to the fluorescence intensity level of a sample from a control neutrophil not exposed a known neutrophil stimulator or polynucleotide of the present invention would be indicative of the polynucleotide being able to stimulate neutrophils. Other suitable assays may be used to determine neutrophil stimulation, by measuring the uptake of oxygen or destruction of bacteria, including but not limited to. Measuring the release of specific cytokines can also be used to determine neutrophil activity. See: Scapini, P., Llapinet-Vera, J., Gasperini, S., Calzetti, F., Bazzoni, F., Cassatella, M., The Neutrophil as a Cellular Source of Cytokines; Immunol. Rev. 177, 195-203.
Killing microbes by the action of myeloperoxidase requires oxygen. Therefore, measuring the transient increase in oxygen uptake—the respiratory burst—by neutrophils reflects their antimicrobial activity. The respiratory burst, therefore, can be used as an indicator of the extent of neutrophil stimulation.
Oligo A can dimerize with itself which may explain why it had less broad stimulating activity than die Oligo B. It was determined by spectrofluorometry in a flow cytometer which recorded the oxidation of the non-fluorescent dihydrorhodamine 123 (DHR123) to fluorescent rhodamine during exposure of neutrophils to the oligos. Results were compared to the degree of fluorescence of a known powerful neutrophil stimulator, phorbol myristic acetate (PMA).
The degree of stimulation by PMA at a concentration of […] represented in the accompanying graph as 100%.
Neutrophils from fathead minnows were prepared and tested by the Institute for International Cooperation in Animal Biologics, Iowa State Univ., Ames, Iowa 50011 (See: Immunomodulatory Effects of B-glucan on Neutrophil Function in Fathead Minnows, Pimephales promelas Rafinesque, 1820, Dev. and Comp. Immunol. (2006 30; 817-830), Palić, D., et al). Oligos were prepared by Oligos, Etc., Portland, Oreg. 97298).

Row | Compound | % of PMA (oxidative burst) (Oligo Conc. 0.03 μg/ml) | % of PMA (oxidative burst) (Oligo Conc. 0.3 μg/ml) | % of PMA (oxidative burst) (Oligo Conc. 3 μg/ml) | % of PMA (oxidative burst) (Oligo Conc. 30 μg/ml) | stimulation of neutrophils (qualitative) | degree of stimulation (reference) (PMA at 1 μg/, set as 100%) | neutrophil destruction (30 μg/ml) | oxidative burst compared with other oligos (P<0.05 denoted by *)
1 | 5′AAUAggUgU3′ (AAUANGUGU; ribonucleotide, lower-case positions undefined, further chemistry not given here) [Oligo A, ribonucleotide complementary to the consensus core of bacterial Initiation Sites] | 11.83 % of PMA | 0 % of PMA | 0 % of PMA | 16.21 % of PMA | significant stimulation | – | – | –
2 | CCCCCCCCCCCCCC(=O)O[C@@H]1[C@@H](C)[C@@]2(O)[C@@H](C=C(CO)C[C@]3(O)C(=O)C(C)=C[C@@H]23)[C@@H]2C(C)(C)[C@]12OC(C)=O [PMA, phorbol myristic acetate, reference compound] | – | – | – | – | – | 100% | – | –
3 | 5′UUAUCCACA3′ (UUAUNCACA; chemistry not fully specified) [Oligo B] | 30 % of PMA and 29.57* % of PMA | 18.32* % of PMA | 33.02* % of PMA | 14.93 % of PMA | significant stimulation | – | did not indicate neutrophil destruction | significantly higher than Oligo A at all tested concentrations; also recorded: significantly higher than mixtures of Oligos A and B at most concentrations
